The test system of the experiment is Male Sprague Dawley rats. Kind of experiment: Elevated plus maze assay. The format is in vivo. To be noted: for percent time spent on open arms versus vehicle treated rats: rat; for effect in the rat elevated plus maze assay: dosed orally. The text has this: The method, which detects anxiolytic activity, follows that described by Handley and Mithani (Naunyn. Schmied. Arch. Pharmacol., 327, 1-5, 1984). Rodents avoid open spaces (the open arms of an elevated plus-maze). Anxiolytics increase exploratory activity in the open arms, as indicated by increased time spent on the open arms and/or by increased % open-arm entries.
The maze was made from black matte acrylic and consisted of 4 arms of equal length and width (50×10 cm) arranged in the form of a plus sign (+). Two opposite arms were enclosed by 40 cm high walls (closed arms). The two other arms have no walls (open arms). The maze was raised approximately 65 cm above the floor.
Male Sprague Dawley rats (c. 200-300 g) were used for the study. 13 to 15 rats were studied per group.
Compounds were evaluated at three or four doses, administered p.o. 30 minutes to 2 hours before the test, at 5 mL per kg of body weight and its effects compared with vehicle-treated group.-Chlordiazepoxide hydrochloride (5 mg/kg, prepared in 0.9% saline), administered i.p. 30 minutes before the test, was used as reference substance to compare with the vehicle treated group.
The day before the test, rats were weighed. The compounds were prepared at least 24 hours before the test day. 30 minutes after dosing, each rat was placed in the centre of the apparatus and its behaviour was recorded for 5 minutes. The animals' behaviour on the maze was tracked using a camera mounted above the maze and the image analysed using EthoVision XT 13 video tracking software.
The percentage of time spent in the open arms was calculated by dividing the time spent on open arms to the total time in the maze.
Data were analysed by comparing treated groups with vehicle control group using one-way ANOVA followed by post-hoc Dunnett's tests.

`CCCNC(=O)c1c(N)c2cccc(-c3cnccc3OC)c2[nH]c1=O` [Example 17, 4-Amino-8-(4-methoxy-3-pyridyl)-2-oxo-N-propyl-1H-quinoline-3-carboxamide]: the “effect in the rat elevated plus maze assay” value (“effect” below) is “anxiolytic-like effects”. Moreover, the “percent time spent on open arms versus vehicle treated rats” value (“percent time spent” below) (1, 3, and 10 mg/kg p.o.) is recorded as “significantly higher”.
For the compound `CCCNC(=O)c1c(N)c2cccc(-c3cnc(C)cc3OC)c2[nH]c1=O` [Example 18, 4-Amino-8-(4-methoxy-6-methyl-3-pyridyl)-2-oxo-N-propyl-1H-quinoline-3-carboxamide], the “effect” value is recorded as “anxiolytic-like effects”. In addition, the “percent time spent” value (1 and 3 mg/kg p.o.) is “significantly higher”.
Take `CCCNC(=O)c1c(N)c2cccc(-c3nc(C)ncc3F)c2[nH]c1=O` [Example 40, 4-Amino-8-(5-fluoro-2-methyl-pyrimidin-4-yl)-2-oxo-N-propyl-1H-quinoline-3-carboxamide]: the “effect” value is reported as “anxiolytic-like effects”. Further, the “percent time spent” value (0.3, 1 and 3 mg/kg p.o.) is “significantly higher”.
